Molecular target: T1, HCV NS3 helicase NS3h_1b(con1) (Hepatitis C virus genotype 1b, UniProt Q9WMX2)
T1 construct: truncated C-terminally His-tagged NS3 proteins lacking the N-terminal protease, called NS3h; His-tag (C); made in house
Experiment: MBHA screen of NCI mechanistic set library at 20 μM (percent inhibition, compound interference)
Assay type: biochemical
Conditions: compounds at 20 μM; for Inh. (%) (Inhibition): calculated from Equation 1
How it was run: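 Molecular beacon-based DNA unwinding assay; compounds screened at 20 μM in triplicate, with DMSO-only negative and 500 nM dT20 positive controls. Fluorescence (ex 643/em 670 nm) was read before and 30 min after adding ATP to 1 mM. Percent inhibition came from the change relative to DMSO controls; interference from pre-ATP fluorescence versus DMSO controls.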

[1] = assay interference calculated with Equation 2 (fluorescence vs DMSO-only controls before ATP)
[2] = MBHA with DNA substrate, assay interference calculated with Equation 2

T1 sequence (Q9WMX2 1192-1657): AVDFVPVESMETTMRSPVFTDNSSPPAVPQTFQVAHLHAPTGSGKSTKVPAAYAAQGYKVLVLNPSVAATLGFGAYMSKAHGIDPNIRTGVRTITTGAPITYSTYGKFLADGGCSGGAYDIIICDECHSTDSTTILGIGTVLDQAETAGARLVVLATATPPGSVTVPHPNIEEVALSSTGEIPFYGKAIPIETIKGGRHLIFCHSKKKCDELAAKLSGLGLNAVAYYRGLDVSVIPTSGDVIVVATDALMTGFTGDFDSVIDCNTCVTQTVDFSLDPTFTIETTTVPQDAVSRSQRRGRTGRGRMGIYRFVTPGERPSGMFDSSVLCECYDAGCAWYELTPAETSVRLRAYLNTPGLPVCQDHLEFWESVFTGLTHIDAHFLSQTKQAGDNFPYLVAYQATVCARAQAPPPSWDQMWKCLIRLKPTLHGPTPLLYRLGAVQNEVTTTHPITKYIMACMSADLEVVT

Inh. (%) (Inhibition) (MBHA with a DNA substrate)	Int.* (Ratio) (Interference) [1]	Int.* (Ratio) (Interference) [2]	Inh. (%) (Inhibition) (MBHA with DNA substrate)	SMILES
−24.7	1.00	–	–	CN/N=C(\C)C(CN1CCCCC1)C(C1=C(O)c2ccccc2OC1)c1ccccc1.Cl (stereo not drawn) [Compound 647418]
–	–	0.33	14.1	Cl.Nc1ccc2cc3ccc(N)cc3nc2c1 [Compound 605756]
−33.1	0.87	–	–	N#Cc1ccccc1NC(=O)C(=O)C(C(=O)c1ccccc1F)C1OC(=O)c2ccccc21 (stereo not drawn) [Compound 640974]
–	–	1.00	−18.3	CCn1c(O)c(C=Nc2ccccc2)s/c1=N/Nc1ncc(CC(=O)Nc2ccccc2C)s1 [Compound 658350]
–	–	0.96	1.5	O=C1/C(=C/c2cccs2)Oc2ccccc21 [Compound 56544]
−6.4	1.02	–	–	O=C([O-])c1ccc(Nc2c3ccccc3nc3ccccc23)cc1.[Na+] [Compound 235082]
–	–	1.25	−8.9	O=S1(=O)CCN(c2ccccc2CC(c2c[nH]c3ccccc23)c2c[nH]c3ccccc23)CC1 [Compound 35949]
−4.2	0.87	–	–	O=C(Nc1ccccc1-c1nn(C(=S)Nc2ccccc2)c(=S)n(C(=S)Nc2ccccc2)c1=O)C(F)(F)F [Compound 623093]
–	–	1.01	−9.8	O=C(Nc1ccc2c(c1)oc(=O)c1ccccc12)C(Cl)Cl [Compound 65937]
–	–	0.24	100.6	CCN1C=C/C(=C\C=C\c2cc[n+](CC)c3ccccc23)c2ccccc21.[I-] [Compound 34391]
–	–	0.97	−7.8	CCN(CC)CCOc1ccccc1/C=C/c1noc2ccccc12.Cl [Compound 601101]
–	–	0.92	5.7	c1ccc(-c2cccc(-c3ccccn3)n2)nc1 [Compound 3905]
7.0	0.98	–	–	CCS(=O)(=O)O.CN(C)C(=O)c1cccc(COc2ccc(N3C(N)=NC(N)=NC3(C)C)cc2Cl)c1 [Compound 139105]
–	–	1.11	24.7	COc1ccc2oc(-c3ccncc3)cc(=O)c2c1 [Compound 54650]
−7.0	1.09	–	–	CN(C)c1cccc(/C=C(\C#N)c2ccccc2)c1 [Compound 667251]
−23.8	1.02	–	–	O=C(CC1(O)C(=O)Nc2c(Cl)cc(Cl)cc21)c1cccc([N+](=O)[O-])c1 (stereo not drawn) [Compound 635438]
–	–	0.98	−11.9	Cc1ccc([N+](=O)[O-])cc1NC(=O)c1cccc([N+](=O)[O-])c1O [Compound 79451]

The next lines start with the compound.

SMILES	Inh. (%) (Inhibition) (MBHA with a DNA substrate)	Int.* (Ratio) (Interference) [1]	Int.* (Ratio) (Interference) [2]	Inh. (%) (Inhibition) (MBHA with DNA substrate)
C[C@@H]1C[C@H]2CC[C@H](O2)[C@H](C)C(=O)O[C@@H](C)C[C@@H]2CC[C@@H](O2)[C@@H](C)C(=O)O[C@H](C)C[C@H]2CC[C@H](O2)[C@H](C)C(=O)O[C@@H](C)C[C@@H]2CC[C@@H](O2)[C@@H](C)C(=O)O1 [Compound 52141]	–	–	0.83	−11.6
NC(=O)c1csc(C2OC(CO)C(O)C2O)n1 (stereo not drawn) [Compound 286193]	–	–	1.13	1.1
CC(=O)NCCCCCCNC(C)=O [Compound 95580]	−3.8	0.93	–	–
CC1Oc2cc3c(-c4c(O)cc(O)c5c(O)c6c(cc45)OC(C)C(C)C6=O)c(O)cc(O)c3c(O)c2C(=O)C1C (stereo not drawn) [Compound 345647]	–	–	0.80	−17.6
C=CC(=O)N1C/C(=C\c2ccc(Cl)cc2)C(=O)/C(=C/c2ccc(Cl)cc2)C1 [Compound 687849]	−5.2	0.93	–	–
CC1=CC23C(COC(=O)C24CO4)C(C(=O)O)=CC3C1C.NCc1ccccc1 (stereo not drawn) [Compound 136037]	–	–	1.00	3.9
C=C1C(=O)O[C@@H]2C[C@@H](C)[C@@H]3C=CC(=O)[C@@]3(C)[C@@H](O)[C@H]12 [Compound 85236]	–	–	1.20	0.4
CC(C)c1oc(=O)cc2c1[C@@H](O)[C@H]1OC(=O)[C@@]3(C)[C@@H](O)[C@H]4O[C@H]4[C@@]2(C)[C@@H]13 [Compound 211500]	10.6	0.89	–	–
CC(C)(C)c1ccc(OC2CCO2)cc1 (stereo not drawn) [Compound 635975]	–	–	0.97	−2.4
CCOC(=O)NC1=C(N2CC2)C(=O)C(NC(=O)OCC)=C(N2CC2)C1=O [Compound 182986]	–	–	1.18	−16.6
C=C(C)[C@@H]1CC[C@]2(C)CC[C@]3(C)[C@H](CC[C@@H]4[C@@]5(C)CC[C@H](O)C(C)(C)[C@@H]5CC[C@]43C)[C@@H]12 [Compound 90487]	–	–	1.18	−13.2
COC(=O)C1(C)CCCC2(C)c3cc(OC)ccc3C(=O)C(Br)C12 (stereo not drawn) [Compound 169600]	–	–	0.90	0.0
COC(=O)[C@@]12OC[C@]34[C@H]([C@@H](O)[C@@H]1O)[C@@]1(C)CC(=O)C(O)=C(C)[C@@H]1C[C@H]3OC(=O)[C@H](OC(=O)C=C(C)C)[C@@H]24 [Compound 172924]	–	–	1.01	13.3
Cc1cc2nc(C=C(C(F)(F)F)C(F)(F)F)oc2cc1C [Compound 168415]	–	–	0.95	13.3
CO[C@H]1Nc2c(ccc(C)c2O)C(=O)N2C=C(/C=C/C(N)=O)C[C@@H]12 [Compound 106408]	–	–	0.94	22.7
NC(=O)C#CC(N)=O [Compound 65381]	–	–	0.96	14.1
O=C(O)CC(NC(=O)CP(=O)(O)O)C(=O)O (stereo not drawn) [Compound 224131]	–	–	0.86	12.3

SMILES	Inh. (%) (Inhibition) (MBHA with a DNA substrate)	Int.* (Ratio) (Interference) [1]	Int.* (Ratio) (Interference) [2]	Inh. (%) (Inhibition) (MBHA with DNA substrate)
Nc1ccn([C@@H]2C=C(CO)[C@@H](O)[C@H]2O)c(=O)n1 [Compound 375575]	–	–	0.93	12.9
O=Cc1cc([N+](=O)[O-])no1 [Compound 626433]	–	–	0.98	−2.2
C1CCNCC1.S=C(S)N1CCCCC1 [Compound 1906]	–	–	1.17	−1.6
COc1c(O[C@@H]2O[C@H](CO)[C@@H](O)[C@H](O)[C@H]2O)cc2c(c1OC)-c1ccc(OC)c(=O)cc1[C@@H](NC(C)=O)CC2 [Compound 32992]	−28.7	1.04	–	–
Cc1cc(O)c2c(c1)C(=O)c1cc(O)cc(O)c1C2=O [Compound 408120]	−29.4	1.05	–	–
CCCN(CCC)C(=S)Sc1nc(C)nc(N2CCN(c3nc(C)nc(SC(=S)N(CCC)CCC)c3[N+](=O)[O-])CC2)c1[N+](=O)[O-] [Compound 675593]	−3.8	1.04	–	–
COc1ccc(O)c2c(=O)c3c(OC)cc4c(c3oc12)[C@@H]1C=CO[C@@H]1O4 [Compound 178249]	–	–	0.87	2.4
O/N=C(\CC(O)(C(F)(F)F)C(F)(F)F)c1cccc(Cl)c1 [Compound 664329]	–	–	1.01	−14.5
C[N+](C)(C)CC1CCCC1=O.[I-] (stereo not drawn) [Compound 621889]	–	–	1.08	12.2
CC[n+]1c(-c2ccccc2)c2cc(N)ccc2c2ccc(N)cc21.[Br-] [Compound 268986]	–	–	0.81	36.0
CCC12C[N+]3([O-])CCc4c([nH]c5ccccc45)C(C(=O)OC)(c4cc5c(cc4OC)N(C)C4C(O)(C(=O)OC)C(OC(C)=O)C6(CC)C=CCN7CCC54C76)CC(C3)C1O2 (stereo not drawn) [Compound 304421]	–	–	0.97	25.6
COc1cc([C@@H]2c3cc4c(c(O)c3C[C@H]3COC(=O)[C@@H]32)OCO4)cc(OC)c1O [Compound 24817]	–	–	0.99	15.4
CCCCOCc1cc(CN2CCN(C)CC2)c(O)c2ncccc12 [Compound 20514]	−19.2	1.06	–	–
CC(C)N.CC(C)N.[Cl-].[Cl-].[OH-].[OH-].[Pt] [Compound 256927]	–	–	1.02	−0.4
COc1cc2cc(c1Cl)N(C)C(=O)C[C@H](OC(=O)[C@H](C)N(C)C(C)=O)[C@]1(C)O[C@H]1[C@H](C)[C@@H]1C[C@@](O)(NC(=O)O1)[C@H](OC)/C=C/C=C(\C)C2 [Compound 153858]	–	–	0.95	0.3
CC(=O)C1=C(O)C2(O)C(=O)c3c(c(C)c4ccc(C)c(O)c4c3O)CC2C(N)C1=O.CCCCCCCCCCCCOS(=O)(=O)O (stereo not drawn) [Compound 73495]	−5.1	1.01	–	–
CCCCS(=N)(=O)CCC(N)C(=O)O (stereo not drawn) [Compound 326231]	–	–	0.94	28.0
